In patent US11046728B2, “Neuroactive steroids, compositions, and uses thereof” (Sage Therapeutics, Inc., priority 2013, dated 2021):

Assays:
[1] = biological target: TBPS binding, rat brain cortical membranes in the presence of 5 μM GABA; test: 35S-TBPS displacement (steroid inhibition of TBPS binding); conditions: read-out: 35S-TBPS Radioligand Displacement (IC50)
Procedure: TBPS binding assays using rat brain cortical membranes in the presence of 5 μM GABA has been described (Gee et al, J. Pharmacol. Exp. Then 1987, 241, 346-353; Hawkinson et al, Mol. Pharmacol. 1994, 46, 977-985). Briefly, cortices are rapidly removed following decapitation of carbon dioxide-anesthetized Sprague-Dawley rats (200-250 g). The cortices are homogenized in 10 volumes of ice-cold 0.32 M sucrose using a glass/teflon homogenizer and centrifuged at 1500×g for 10 min at 4° C. The resultant supernatants are centrifuged at 10,000×g for 20 min at 4° C. to obtain the P2 pellets. The P2 pellets are resuspended in 200 mM NaCl/50 mM Na—K phosphate pH 7.4 buffer and centrifuged at 10,000×g for 10 min at 4° C. This washing procedure is repeated twice and the pellets are resuspended in 10 volumes of buffer. Aliquots (100 μL) of the membrane suspensions are incubated with 3 nM [^35S]-TBPS and 5 μL, aliquots of test drug dissolved in dimethyl sulfoxide (DMSO) (final 0.5%) in the presence of 5 μM GABA. The incubation is brought to a final volume of 1.0 mL with buffer. Nonspecific binding is determined in the presence of 2 μM unlabeled TBPS and ranged from 15 to 25%. Following a 90 min incubation at room temp, the assays are terminated by filtration through glass fiber filters (Schleicher and Schuell No. 32) using a cell harvester (Braudel) and rinsed three times with ice-cold buffer. Filter bound radioactivity is measured by liquid scintillation spectrometry. Non-linear curve fitting of the overall data for each drug averaged for each concentration is done using Prism (GraphPad). […] The concentration of test compound producing 50% inhibition (IC50) of specific binding and the maximal extent of inhibition (Imax) are determined for the individual experiments with the same model used for the overall data and then the means±SEMs of the individual experiments are calculated.
Various compounds are or can be screened to determine their potential as modulators of ^35S-TBPS binding in vitro. These assays are or can be performed in accordance with the above discussed procedures.

[2] = biological target: T1, GABA receptor α1β2γ2 (Homo sapiens, UniProt P14867+P47870); test: Patch clamp electrophysiology, Qpatch in Ltk cells; format: cell-based; conditions: 10 μM test article, GABA EC20 = 2 μM, read-out: GABA (α1β2γ2) Qpatch in Ltk, % efficacy at 10 μM
T1 construct: expressed in transfected cells; host or cells: LTK cells, stably transfected

[3] = biological target: T2, GABA receptor α4β3δ (Homo sapiens, UniProt P28472+P48169); test: Patch clamp electrophysiology, manual patch in CHO cells; format: cell-based; conditions: 10 μM test article, GABA EC20 = 2 μM, read-out: GABA (α4β3δ) Manual patch in CHO, % efficacy at 10 μM
T2 construct: expressed in transfected cells; host or cells: CHO cells, transiently transfected

[4] = test system: male Sprague Dawley rats; test: Loss of righting reflex in rats; format: in vivo, rat; conditions: intravenous bolus 5 mg/kg
Procedure: The plasma pharmacokinetics and a qualitative assessment of sedation were obtained in male Sprague Dawley rats according to the following procedure. Rats were dosed by intravenous bolus dose (60 seconds) via the foot dorsal vein at 5 mg/kg in an appropriate vehicle. In order to assess sedation, rats were gently restrained by hand to a lateral position for dose administration. […] If the animal was unable to return to an upright position, the time was recorded as the onset of loss of righting reflex (LRR). […] Sluggish or incomplete righting twice consecutively within a 30 second interval qualifies as a loss of righting reflex. After onset of LRR, animals were assessed every 5 minutes in the same manner. Recovery of righting reflex is defined as the ability of a rat to right itself completely within 20 seconds of being placed in dorsal recumbency. The duration of LRR is defined as the time interval between LRR and the return of righting reflex.

T1 sequence (P14867 28-456): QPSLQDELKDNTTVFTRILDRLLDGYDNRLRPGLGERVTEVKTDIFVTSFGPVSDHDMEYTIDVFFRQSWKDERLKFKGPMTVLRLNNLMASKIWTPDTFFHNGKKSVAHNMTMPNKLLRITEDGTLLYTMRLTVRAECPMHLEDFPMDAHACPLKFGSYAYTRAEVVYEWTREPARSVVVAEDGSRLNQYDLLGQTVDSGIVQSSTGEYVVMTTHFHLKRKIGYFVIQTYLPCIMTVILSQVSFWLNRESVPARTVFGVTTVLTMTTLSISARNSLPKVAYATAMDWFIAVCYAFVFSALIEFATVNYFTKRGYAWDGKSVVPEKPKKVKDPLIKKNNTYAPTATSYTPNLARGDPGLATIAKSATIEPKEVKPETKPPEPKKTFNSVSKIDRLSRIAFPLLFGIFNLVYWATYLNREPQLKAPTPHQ
T1 sequence (P47870 25-512 limits assumed): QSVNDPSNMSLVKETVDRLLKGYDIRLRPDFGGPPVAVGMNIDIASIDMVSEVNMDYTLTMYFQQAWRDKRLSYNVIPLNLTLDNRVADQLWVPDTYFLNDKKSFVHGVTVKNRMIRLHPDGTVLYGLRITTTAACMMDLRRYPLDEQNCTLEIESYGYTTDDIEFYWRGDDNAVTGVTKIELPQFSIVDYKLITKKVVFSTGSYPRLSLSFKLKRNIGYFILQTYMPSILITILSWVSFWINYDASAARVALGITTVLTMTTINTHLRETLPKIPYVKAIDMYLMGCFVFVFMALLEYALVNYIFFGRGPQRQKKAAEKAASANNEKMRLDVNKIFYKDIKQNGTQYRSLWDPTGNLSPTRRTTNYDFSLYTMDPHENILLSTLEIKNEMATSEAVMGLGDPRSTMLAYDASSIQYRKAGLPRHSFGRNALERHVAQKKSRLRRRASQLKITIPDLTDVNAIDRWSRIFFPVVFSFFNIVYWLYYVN
T1 sequence (P18507 40-475 partner): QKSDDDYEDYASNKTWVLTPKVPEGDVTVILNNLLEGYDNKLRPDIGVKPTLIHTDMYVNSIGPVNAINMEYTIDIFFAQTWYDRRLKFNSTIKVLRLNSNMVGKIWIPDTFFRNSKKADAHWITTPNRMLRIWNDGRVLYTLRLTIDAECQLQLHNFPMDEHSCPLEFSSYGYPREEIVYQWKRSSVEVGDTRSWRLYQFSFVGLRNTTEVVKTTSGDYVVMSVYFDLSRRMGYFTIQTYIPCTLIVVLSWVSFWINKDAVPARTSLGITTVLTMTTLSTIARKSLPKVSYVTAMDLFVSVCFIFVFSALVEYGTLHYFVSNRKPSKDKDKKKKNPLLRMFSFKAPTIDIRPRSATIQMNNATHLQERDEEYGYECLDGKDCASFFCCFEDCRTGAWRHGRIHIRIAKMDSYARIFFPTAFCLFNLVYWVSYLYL
T2 sequence (P48169 36-554): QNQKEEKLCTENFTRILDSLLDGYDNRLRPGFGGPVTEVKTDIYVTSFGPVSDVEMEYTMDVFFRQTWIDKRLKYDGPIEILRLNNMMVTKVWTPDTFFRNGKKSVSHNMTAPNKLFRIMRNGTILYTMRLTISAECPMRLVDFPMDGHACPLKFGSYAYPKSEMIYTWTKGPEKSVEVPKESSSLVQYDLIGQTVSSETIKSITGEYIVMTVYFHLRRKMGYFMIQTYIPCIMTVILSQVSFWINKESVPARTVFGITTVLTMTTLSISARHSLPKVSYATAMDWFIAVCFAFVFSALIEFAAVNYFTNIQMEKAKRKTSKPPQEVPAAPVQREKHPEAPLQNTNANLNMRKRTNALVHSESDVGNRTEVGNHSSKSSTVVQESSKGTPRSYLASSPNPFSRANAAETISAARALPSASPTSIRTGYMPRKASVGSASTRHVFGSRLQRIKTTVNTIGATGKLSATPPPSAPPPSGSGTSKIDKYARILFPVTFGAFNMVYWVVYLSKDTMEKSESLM
T2 sequence (P28472 26-473): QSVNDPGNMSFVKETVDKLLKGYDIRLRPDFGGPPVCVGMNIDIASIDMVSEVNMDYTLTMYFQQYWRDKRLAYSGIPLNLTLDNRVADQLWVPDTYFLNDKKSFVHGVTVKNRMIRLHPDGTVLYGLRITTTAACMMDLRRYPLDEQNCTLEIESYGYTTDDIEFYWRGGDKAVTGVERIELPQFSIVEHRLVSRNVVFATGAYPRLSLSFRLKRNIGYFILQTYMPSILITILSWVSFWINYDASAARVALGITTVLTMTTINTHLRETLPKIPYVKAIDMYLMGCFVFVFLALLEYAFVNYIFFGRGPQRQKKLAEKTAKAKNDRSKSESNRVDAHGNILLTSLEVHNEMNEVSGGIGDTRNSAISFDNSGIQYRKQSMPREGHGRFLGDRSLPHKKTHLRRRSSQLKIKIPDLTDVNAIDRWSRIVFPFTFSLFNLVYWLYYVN
T2 sequence (O14764 25-452 partner): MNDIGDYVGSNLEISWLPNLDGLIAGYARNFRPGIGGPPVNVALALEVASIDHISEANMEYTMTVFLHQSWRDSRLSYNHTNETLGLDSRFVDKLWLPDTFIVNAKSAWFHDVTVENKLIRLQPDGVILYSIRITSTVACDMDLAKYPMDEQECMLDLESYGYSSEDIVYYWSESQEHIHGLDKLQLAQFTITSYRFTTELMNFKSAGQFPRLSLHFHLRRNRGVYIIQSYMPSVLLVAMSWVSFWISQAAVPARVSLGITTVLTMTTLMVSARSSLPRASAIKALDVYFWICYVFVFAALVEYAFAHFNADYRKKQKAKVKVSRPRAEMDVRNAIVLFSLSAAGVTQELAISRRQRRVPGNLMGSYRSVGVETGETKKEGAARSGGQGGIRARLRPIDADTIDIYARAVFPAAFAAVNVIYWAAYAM

| SMILES | IC50 [1] | Emax at 10 µM [2] | Emax at 10 µM [3] | Duration of LRR (min) [4] |
| --- | --- | --- | --- | --- |
| C[C@]12C[C@H](OCCO)[C@@H](O)C[C@@H]1CC[C@@H]1[C@@H]2CC[C@]2(C)[C@@H](C#N)CC[C@@H]12 [Compound 7] | > 500 nM | – | – | – |
| C[C@]12CC[C@@H](O)C[C@H]1CC[C@@H]1[C@@H]2[C@@H](O)C[C@]2(C)[C@@H](C#N)CC[C@@H]12 [Compound 9] | > 500 nM | 100 to 500% | 10 to 100% | – |
| CCO[C@H]1C[C@@]2(C)[C@@H](CC[C@@H]3[C@@H]2[C@@H](O)C[C@]2(C)[C@@H](C#N)CC[C@@H]32)C[C@@H]1O [Compound 10] | > 500 nM | > 500% | – | A (“A” indicates the duration of LRR to be <10 min) |
| CCO[C@H]1C[C@@]2(C)[C@@H](CC[C@@H]3[C@@H]2[C@@H](O)C[C@]2(C)[C@H](C#N)CC[C@@H]32)C[C@@H]1O [Compound 11] | > 500 nM | – | – | – |
| CO[C@H]1C[C@]2(C)[C@@H](C#N)CC[C@H]2[C@@H]2CC[C@H]3C[C@H](O)[C@@H](OC)C[C@]3(C)[C@H]21 [Compound 12] | 100 to 500 nM | > 500% | – | A (“A” indicates the duration of LRR to be <10 min) |
| CO[C@H]1C[C@]2(C)[C@H](C#N)CC[C@H]2[C@@H]2CC[C@H]3C[C@H](O)[C@@H](OC)C[C@]3(C)[C@H]21 [Compound 13] | > 500 nM | – | – | – |
| C[C@]12CC[C@@H](O)C[C@H]1CC[C@@H]1[C@@H]2[C@@H](O)C[C@]2(C)[C@H](C#N)CC[C@@H]12 [Compound 15] | > 500 nM | – | – | – |
| COCCO[C@H]1C[C@@]2(C)[C@@H](CC[C@H]3[C@@H]4CC[C@H](C#N)[C@@]4(C)CC(=O)[C@@H]32)C[C@@H]1O [Compound 17] | > 500 nM | 100 to 500% | – | – |
| CCCO[C@H]1C[C@@]2(C)[C@@H](CC[C@@H]3[C@@H]2CC[C@]2(C)[C@H](C#N)CC[C@@H]32)C[C@@H]1O [Compound 18] | > 500 nM | – | – | – |
| CCO[C@H]1C[C@@]2(C)[C@@H](CC[C@H]3[C@@H]4CC[C@@H](C#N)[C@@]4(C)CC(=O)[C@@H]32)C[C@@H]1O [Compound 20] | > 500 nM | – | – | – |
| CCCO[C@H]1C[C@@]2(C)[C@@H](CC[C@H]3[C@@H]4CC[C@H](C#N)[C@@]4(C)CC(=O)[C@@H]32)C[C@@H]1O [Compound 21] | 10 to 50 nM | > 500% | – | C (“C” indicates the duration of LRR to be >20 minutes) |
| CC(C)O[C@H]1C[C@@]2(C)[C@@H](CC[C@H]3[C@@H]4CC[C@H](C#N)[C@@]4(C)CC(=O)[C@@H]32)C[C@@H]1O [Compound 22] | 50 to 100 nM | 100 to 500% | – | – |
| CC(C)O[C@H]1C[C@@]2(C)[C@@H](CC[C@H]3[C@@H]4CC[C@H](C#N)[C@@]4(C)CC(=O)[C@@H]32)C[C@@H]1O [Compound 23] | 100 to 500 nM | – | – | B (“B” indicates the duration of LRR to be 10-20 minutes) |
| COCCO[C@H]1C[C@@]2(C)[C@@H](CC[C@@H]3[C@@H]2[C@@H](O)C[C@]2(C)[C@@H](C#N)CC[C@@H]32)C[C@@H]1O [Compound 24] | > 500 nM | – | – | – |
| CCCO[C@H]1C[C@@]2(C)[C@@H](CC[C@@H]3[C@@H]2[C@@H](O)C[C@]2(C)[C@@H](C#N)CC[C@@H]32)C[C@@H]1O [Compound 26] | 100 to 500 nM | – | – | B (“B” indicates the duration of LRR to be 10-20 minutes) |
| C[C@]12CC[C@@H](O)C[C@@H]1CC[C@@H]1[C@@H]2[C@@H](O)C[C@]2(C)[C@@H](C#N)CC[C@@H]12 [Compound 27] | > 500 nM | – | – | – |
| CO[C@H]1C[C@]2(C)[C@@H](C#N)CC[C@H]2[C@@H]2CC[C@@H]3C[C@H](O)CC[C@]3(C)[C@H]21 [Compound 28] | 100 to 500 nM | > 500% | – | A (“A” indicates the duration of LRR to be <10 min) |
| CC(C)CO[C@H]1C[C@]2(C)C3CC[C@]4(C)[C@@H](C#N)CC[C@H]4[C@@H]3CC[C@H]2C[C@@H]1O (stereo partly shown) [Compound 29] | < 10 nM | > 500% | – | C (“C” indicates the duration of LRR to be >20 minutes) |
| C[C@]12C[C@@H](O)C3[C@@H](CC[C@H]4C[C@H](O)CC[C@]34C)[C@@H]1CC[C@@H]2C#N (stereo partly shown) [Compound 30] | > 500 nM | – | – | – |

| SMILES | IC50 [1] | Emax at 10 µM [2] | Emax at 10 µM [3] | Duration of LRR (min) [4] |
| --- | --- | --- | --- | --- |
| C[C@@H]1C[C@@]2(C)[C@@H](CC[C@@H]3[C@@H]2CC[C@]2(C)[C@@H](C#N)CC[C@@H]32)C[C@@H]1O [Compound 33] | 10 to 50 nM | 100 to 500% | – | A (“A” indicates the duration of LRR to be <10 min) |
| CO[C@@H]1C[C@]2(C)[C@@H](C#N)CC[C@H]2[C@@H]2CC[C@H]3C[C@H](O)CC[C@]3(C)C21 (stereo partly shown) [Compound 34] | 100 to 500 nM | – | – | – |
| C[C@H]1C[C@@]2(C)[C@@H](CC[C@@H]3[C@@H]2CC[C@]2(C)[C@@H](C#N)CC[C@@H]32)C[C@@H]1O [Compound 40] | 10 to 50 nM | > 500% | – | B (“B” indicates the duration of LRR to be 10-20 minutes) |
| CC[C@H]1C[C@@]2(C)[C@@H](CC[C@@H]3[C@@H]2CC[C@]2(C)[C@@H](C#N)CC[C@@H]32)C[C@@H]1O [Compound 41] | < 10 nM | > 500% | – | C (“C” indicates the duration of LRR to be >20 minutes) |
| C[C@]12C[C@H](OC3CC3)[C@@H](O)C[C@@H]1CC[C@@H]1[C@@H]2CC[C@]2(C)[C@@H](C#N)CC[C@@H]12 [Compound 42] | > 500 nM | – | – | – |
| C[C@]12C[C@H](OC(F)(F)F)[C@@H](O)C[C@@H]1CC[C@@H]1[C@@H]2CC[C@]2(C)[C@@H](C#N)CC[C@@H]12 [Compound 43] | > 500 nM | – | – | – |
| CO[C@@H]1C[C@@]2(C)[C@@H](CC[C@@H]3[C@@H]2CC[C@]2(C)[C@@H](C#N)CC[C@@H]32)C[C@@H]1O [Compound 44] | > 500 nM | – | – | – |
| CO[C@H]1C[C@]2(C)[C@@H](C#N)CC[C@H]2[C@@H]2CC[C@H]3C[C@H](O)[C@H](C)C[C@]3(C)[C@H]21 [Compound 45] | 50 to 100 nM | > 500% | – | C (“C” indicates the duration of LRR to be >20 minutes) |
| CO[C@H]1C[C@]2(C)[C@H](C#N)CC[C@H]2[C@@H]2CC[C@H]3C[C@H](O)[C@H](C)C[C@]3(C)[C@H]21 [Compound 46] | 100 to 500 nM | 10 to 100% | – | – |
| C[C@H]1[C@H](O)CC[C@@]2(C)[C@H]1CC[C@@H]1[C@@H]2CC[C@]2(C)[C@@H](C#N)CC[C@@H]12 [Compound 49] | 100 to 500 nM | – | – | – |
| CC[C@H]1[C@H](O)CC[C@]2(C)[C@H]3CC[C@]4(C)[C@@H](C#N)CC[C@H]4[C@@H]3CC[C@@H]12 [Compound 50] | > 500 nM | – | – | – |
| CO[C@H]1C[C@]2(C)[C@@H](C#N)CC[C@H]2[C@@H]2CC[C@H]3C[C@H](O)[C@@H](C)C[C@]3(C)[C@H]21 [Compound 51] | 10 to 50 nM | > 500% | – | C (“C” indicates the duration of LRR to be >20 minutes) |
| CO[C@H]1C[C@]2(C)[C@@H](C#N)CC[C@H]2[C@@H]2CC[C@H]3[C@@H](C)[C@H](O)CC[C@]3(C)[C@H]21 [Compound 52] | > 500 nM | – | – | – |
| C[C@H]1C[C@@]2(C)[C@@H](CC[C@H]3[C@@H]4CC[C@H](C#N)[C@@]4(C)CC(=O)[C@@H]32)C[C@@H]1O [Compound 53] | 100 to 500 nM | – | – | – |
| C[C@H]1C[C@@]2(C)[C@@H](CC[C@@H]3[C@@H]2[C@@H](O)C[C@]2(C)[C@@H](C#N)CC[C@@H]32)C[C@@H]1O [Compound 54] | 100 to 500 nM | – | – | – |
| C[C@H]1[C@H](O)CC[C@@]2(C)[C@H]1CC[C@H]1[C@@H]3CC[C@H](C#N)[C@@]3(C)CC(=O)[C@@H]12 [Compound 55] | > 500 nM | – | – | – |
| C[C@H]1[C@H](O)CC[C@]2(C)[C@@H]3[C@@H](CC[C@@H]12)[C@@H]1CC[C@H](C#N)[C@@]1(C)C[C@@H]3O [Compound 56] | > 500 nM | – | – | – |
| C[C@]12C[C@H](OC3CC3)[C@@H](O)C[C@@H]1CC[C@@H]1[C@@H]2CC[C@]2(C)[C@H](C#N)CC[C@@H]12 [Compound 57] | > 500 nM | – | – | – |
